From PubChem BioAssay (NCI)
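Assay format: 96-well plates, 48-hour exposure. TGI marks complete inhibition of growth.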

Experiments:
Assay in all cases: growth of human tumour cells (NCI), 48 h
SK-MEL-28 melanoma = test system: SK-MEL-28 melanoma
EKVX NSCLC = test system: EKVX NSCLC
HS 578T breast = test system: HS 578T breast
LOX IMVI melanoma = test system: LOX IMVI melanoma
NCI/ADR-RES ovarian = test system: NCI/ADR-RES ovarian
MALME-3M melanoma = test system: MALME-3M melanoma
KM20L2 colon = test system: KM20L2 colon
SK-MEL-2 melanoma = test system: SK-MEL-2 melanoma
IGROV1 ovarian = test system: IGROV1 ovarian
NCI-H23 lung = test system: NCI-H23 lung
U251 CNS = test system: U251 CNS
UACC-62 melanoma = test system: UACC-62 melanoma
MDA-N = test system: MDA-N
SR leukemia = test system: SR leukemia
SK-OV-3 ovarian = test system: SK-OV-3 ovarian
CCRF-CEM leukemia = test system: CCRF-CEM leukemia
MCF7 breast = test system: MCF7 breast

| Compound | TGI (SK-MEL-28 melanoma) [µM] | TGI (EKVX NSCLC) [µM] | TGI (HS 578T breast) [µM] | TGI (LOX IMVI melanoma) [µM] | TGI (NCI/ADR-RES ovarian) [µM] | TGI (MALME-3M melanoma) [µM] | TGI (KM20L2 colon) [µM] | TGI (SK-MEL-2 melanoma) [µM] | TGI (IGROV1 ovarian) [µM] | TGI (NCI-H23 lung) [µM] | TGI (U251 CNS) [µM] | TGI (UACC-62 melanoma) [µM] | TGI (MDA-N) [µM] | TGI (SR leukemia) [µM] | TGI (SK-OV-3 ovarian) [µM] | TGI (CCRF-CEM leukemia) [µM] | TGI (MCF7 breast) [µM] |
| --- | --- | --- | --- | --- | --- | --- | --- | --- | --- | --- | --- | --- | --- | --- | --- | --- | --- |
| CCN(CC)CC(=O)O[C@]1(CC)C(=O)OCc2c1cc1n(c2=O)Cc2cc3ccccc3nc2-1 | 39.1 | > 100 | > 100 | 0.177 | 0.165 | 2.61 | 0.887 | 1.42 | 1.04 | 0.13 | 0.221 | 0.0261 | 1.58 | – | – | – | – |
| COc1ccc(-c2cc(=O)c3ccccc3[nH]2)c(OC)c1 | > 100 | > 100 | – | > 100 | – | > 100 | > 100 | – | > 100 | > 100 | > 100 | > 100 | – | > 100 | > 100 | > 100 | – |
| C=C1CCC23CC(CC[C@@H]2[C@@]12C[C@@H](c1ccoc1)OC2=O)OC3=O (some centres not stated) | – | > 100 | – | – | – | > 100 | > 100 | > 100 | > 100 | > 100 | > 100 | > 100 | – | – | > 100 | > 100 | – |
| C/C(=C1/CCC/C(=C(/C)c2ccccc2)C1=O)c1ccccc1 | > 100 | > 100 | – | > 100 | – | 46.7 | > 100 | 38.7 | > 100 | > 100 | 74.2 | > 100 | – | 43.5 | > 100 | 49.8 | – |
| O=[N+]([O-])c1cccc2nc3ccccc3c(NCCC[N+]3([O-])CCOCC3)c12 | 0.984 | 2.01 | > 100 | 1.62 | 39.2 | 0.347 | – | 0.375 | 0.608 | 0.316 | 0.964 | 0.319 | 0.277 | > 40.8 | 1.53 | 0.583 | 0.725 |
| C=C1CC[C@H](O)C(C)(C)[C@@H]1CC/C(C)=C/CC/C=C(\C)CC/C=C(\C)CCC=C(C)C | > 100 | > 100 | > 100 | > 100 | > 100 | > 100 | – | > 100 | > 100 | > 100 | > 100 | > 100 | > 100 | > 100 | > 100 | > 100 | > 100 |
| CCOC(=O)C1(C(=O)OCC)C[C@H](C)[C@](C)(O)C1 | > 100 | > 100 | > 100 | > 100 | > 100 | > 100 | – | > 100 | > 100 | > 100 | > 100 | > 100 | > 100 | > 100 | > 100 | > 100 | > 100 |
| COC(=O)CCc1cc(O)c2c(c1)C(C(=O)OC)C(c1ccc(O)c(O)c1)O2 (configuration not stated) | > 100 | > 100 | > 95.9 | > 100 | > 100 | > 100 | – | > 100 | > 92.5 | > 100 | > 95 | > 100 | 13.3 | > 25.5 | > 93 | > 48.7 | > 100 |
| Cc1cc(=O)n2nc(CN3CCCCC3)sc2n1 | > 100 | > 100 | > 100 | > 100 | > 100 | > 100 | – | > 100 | > 100 | > 100 | > 100 | > 100 | > 100 | > 100 | > 100 | > 100 | > 100 |
| CNc1nc2n(CCO)c(-c3ccccc3)c(-c3ccccc3)nc-2c(=O)n1 | > 50 | > 50 | > 50 | > 50 | > 50 | > 50 | – | > 50 | > 50 | > 50 | > 50 | > 50 | > 50 | > 50 | > 50 | > 50 | > 50 |
| c1csc(-c2cc(-c3cccs3)c(-c3ccsc3)s2)c1 | > 100 | > 100 | > 100 | > 100 | > 100 | > 100 | – | > 100 | > 100 | > 100 | > 100 | > 100 | > 100 | > 100 | > 100 | > 100 | > 100 |
| NC(CCC(=O)O)C(=O)N1CCN(c2nc(N3CCCC3)c3nc(Cl)c(NCc4ccccc4)nc3n2)CC1 (configuration not stated) | 27.7 | 27.7 | 60.2 | 32.3 | 46.2 | 33.6 | – | 31.5 | 40 | 32.3 | 30.2 | 24.7 | 23.1 | 17.5 | 32.9 | 26.2 | 25.6 |
| C=CCc1cc(-c2cc(CC=C)c(O)c(CNCCCl)c2)cc(CNCCCl)c1O | 32.9 | – | – | 31.6 | – | 39.5 | 33.9 | 35.2 | 51.4 | 31.3 | 30.7 | 28.3 | – | – | – | 81.8 | – |
| CSC1=N/C(=C\c2ccccc2)C(=O)N1CN1CCCCC1 | > 100 | > 100 | > 100 | > 100 | > 100 | > 100 | – | > 100 | > 100 | > 100 | > 100 | > 100 | > 100 | > 100 | > 100 | > 100 | > 100 |
| CC(C)(C)C1=CC(=C(c2ccc(-c3c4nc(c(-c5ccc(C(=C6C=C(C(C)(C)C)C(=O)C(C(C)(C)C)=C6)c6cc(C(C)(C)C)c(O)c(C(C)(C)C)c6)cc5)c5ccc([nH]5)c(-c5ccc(C(=C6C=C(C(C)(C)C)C(=O)C(C(C)(C)C)=C6)c6cc(C(C)(C)C)c(O)c(C(C)(C)C)c6)cc5)c5nc(c(-c6ccc(C(=C7C=C(C(C)(C)C)C(=O)C(C(C)(C)C)=C7)c7cc(C(C)(C)C)c(O)c(C(C)(C)C)c7)cc6)c6ccc3[nH]6)C=C5)C=C4)cc2)c2cc(C(C)(C)C)c(O)c(C(C)(C)C)c2)C=C(C(C)(C)C)C1=O | > 100 | > 100 | > 100 | > 100 | > 100 | > 100 | – | > 100 | > 100 | > 100 | > 100 | > 100 | > 100 | > 100 | > 100 | > 100 | > 100 |
| Cc1ccccc1N=Nc1ccc(N/N=C2/CCCNC2=O)c(C)c1 | > 100 | > 100 | > 100 | > 100 | > 100 | > 100 | – | > 100 | > 100 | > 100 | > 100 | > 100 | > 100 | > 100 | > 100 | > 100 | > 100 |
| COC/C=C\[C@]1(O)CCCC[C@@H]1CC(OC)OC | > 100 | > 100 | > 100 | > 100 | > 100 | > 100 | – | > 100 | > 100 | > 100 | > 100 | > 100 | > 100 | > 100 | > 100 | > 100 | > 100 |
| COC(=O)C(COC(C)=O)NC(=O)/C=C/c1ccc(O)c(OC(C)=O)c1 (configuration not stated) | > 100 | > 100 | > 100 | > 100 | > 100 | > 100 | – | > 100 | > 100 | > 100 | > 100 | > 100 | > 100 | > 100 | > 100 | > 100 | > 100 |
| CCn1c(SCC(=O)NNC(=S)Nc2ccc(C)cc2)nc2ccccc2c1=O | > 100 | > 100 | > 100 | > 100 | > 100 | > 100 | – | > 100 | > 100 | > 100 | > 100 | > 100 | > 100 | > 100 | > 100 | > 100 | > 100 |
